One compound from patent US20230372382A1, “USE OF ADENOSINE DIPHOSPHATE RIBOSE FOR ADJUVANT THERAPY WITH RADIATION AND/OR ANTI-CANCER TREATMENT” (PearlsInMires Co., Ltd., priority 2021, published 2023) can be followed below.

pIC50: −log10 of the molar value.

One assay has as its system Hep G2 cells. Put plainly: ADP-ribose quantitative analysis (ELISA) in cancer cells. The class given is cell-based. The conditions noted are these: 8 μM ADP-ribose, 24 hours, P<0.001. How it is done: After culturing, the culture medium was removed, the cells were washed with phosphate-buffered saline, and then RIPA buffer was added and the cells were left on ice for 20 minutes. After scraping the cells, the cells were put in a centrifuge tube and centrifuged for 10 minutes at 10,000 g and 4° C. The supernatant was obtained, and 1% SDS was added, and then the reaction product was boiled at 100° C. for 5 minutes and cooled on ice. The supernatant was centrifuged again at 10,000 g and 4° C. for 10 minutes to obtain the final supernatant, and ADP-ribose was quantitatively analyzed and compared using an ELISA analysis kit (Cell Biolabs, Inc., San Diego, CA, USA).
5×10^5 Hep G2 cells were divided into the untreated group and 8 μM ADP-ribose-treated group and cultured in Eagle's Minimum Essential Medium supplemented with 10% fetal calf serum+100 units/ml penicillin+100 μg/ml streptomycin under conditions of 37° C. and 5% CO2 for 24 hours. The medium of the cultured cells was removed, and the supernatant prepared by treatment with RIPA buffer and 1% sodium dodecyl sulfate (SDS) was used for ELISA analysis to detect and analyze ADP-ribose.
Background: In an ELISA, binding on a coated surface is turned into a signal by an enzyme label.

The test system of another assay is H1975 cells. Put plainly: Cancer cell death verification (MTT cell viability). It counts as cell-based.
The next assay has as its system AsPC-1 cells. The assay is described as above. The class given is cell-based.
The subject of assay [1] is Brain cancer (U-87MG) cells. Put plainly: Cell death by combination treatment with anti-cancer drug (MTT). The conditions noted are these: Homo sapiens, ADP-ribose 1.6 μM in combination with bevacizumab, 24 hours, P<0.001. It counts as cell-based.
In assay [2] the test system is Lung cancer (H1975) cells. The description is as above. The class given is cell-based. The following applies: Homo sapiens, NCI-H1975; H1975, ADP-ribose 1.6 μM in combination with osimertinib 1 nM, 24 hours, P<0.001.
The next assay deals with Caki-1 cells. Put plainly: Change over time in intracellular ADP-ribose, radiation versus ADP-ribose treatment (ELISA). The class given is cell-based. The conditions noted are these: Caki-1, 16 μM ADP-ribose, even after 24 hours; after radiation back to untreated level from 8 hours. As to the method: Brain cancer (U-87MG), kidney cancer (Caki-1), pancreatic cancer (AsPC-1), or breast cancer (MDA-MB-231) cells were cultured in a 6-well plate, respectively, and the cells were divided into the untreated group, the radiation-treated group, and the ADP-ribose-treated group. Irradiation was performed using an X-Rad 320 irradiator (Precision X-ray, North Branford, CT, USA), and cancer cells were treated with a total of 1, 2, and 5 Gy at a dose rate of 300 kVp and 150 cGy/min using an X-ray beam filter composed of 12.5 mA and 2.0 mm Al, respectively. Before treatment and at 4, 8, 16, and 24 hours after treatment, the medium was removed, the cells were washed with phosphate-buffered saline, and then RIPA buffer was added and the products were left on ice for 20 minutes. After scraping the cells, the cells were put in a centrifuge tube and centrifuged for 10 minutes at 10,000 g and 4° C. The supernatant was obtained, and 1% SDS was added, and then the reaction product was boiled at 100° C. for 5 minutes and cooled on ice. The supernatant was centrifuged again at 10,000 g and 4° C. for 10 minutes to obtain the final supernatant, and ADP-ribose was quantitatively analyzed using an ELISA analysis kit (Cell Biolabs, Inc., San Diego, CA, USA). […]

A further assay has as its system U-87MG cells. Put plainly: Cell death by combination treatment of ADP-ribose and radiation (MTT). It counts as cell-based. The conditions noted are these: 8 μM ADP-ribose in combination with 2 Gy radiation, 24 hours, P<0.001, 2 Gy alone about 88%.
The next assay concerns MDA-MB-231 cells. The description is as above. It counts as cell-based. The following applies: MDA-MB-231, 16 μM ADP-ribose in combination with 2 Gy radiation, 24 hours, P<0.001; 2 Gy alone about 90.6%.
For assay [3], the system named is Pancreatic cancer (AsPC-1) cells. Put plainly: Xenograft model, combination with radiation, tumor volume. The class given is in vivo, BALB/c nude mice. The following applies: AsPC-1 xenograft. As to the method: Brain cancer (U-87MG), pancreatic cancer (AsPC-1), breast cancer (MDA-MB-231), or kidney cancer (Caki-1) cells (1×10^7 cells) were inoculated into 5-week-old BALB/c nude mice on the back flank, respectively. Then, when tumors were grown to a volume of approximately 150 mm^3, the mice were divided into three groups: the control group (Control), 2 Gy dose of radiation alone, and a combination administration of 2 Gy dose of radiation+10 mg/kg of ADP-ribose (subcutaneous administration, 3 times a week). The irradiation was performed with an X-Rad 320 irradiator (Precision X-ray, North Branford, CT, USA), wherein the mice were placed by maintaining an appropriate distance from the radiation source for irradiation with a predetermined radiation dose. A lead shield was used to protect the body parts or organs from exposure to radiation, other than the cancerous part of the mouse. The irradiation was performed with a total of 2 Gy of radiation fractionated into two doses of 1 Gy each (for 2 days) at a dose rate of 300 kVp and 150 cGy/min using an X-ray beam filter composed of 12.5 mA and 2.0 mm Al. The tumor size was measured every 6 days using a digital caliper, and the results of changes in tumor volume were compared by the group.
Pancreatic cancer (AsPC-1) cells (1×10^7) were inoculated into 5-week-old BALB/c nude mice on the back flank, and the mice were divided into three groups: the control group (Control), 2 Gy dose of radiation alone, and combination administration of 2 Gy dose radiation+10 mg/kg of ADP-ribose. When the tumors were grown to a volume of approximately 150 mm^3, 2 Gy dose of radiation was irradiated twice at 1 Gy each, and 10 mg/kg of ADP-ribose was injected subcutaneously 3 times a week. The tumor size was measured using a digital caliper, and the results of changes in tumor volume were compared by the group.

[4] abbreviates: ADP-ribose 10 mg/kg s.c. + 2 Gy radiation, P<0.001.

Description for AsPC-1 cells: (§1) 3×10^3 Brain cancer (U-87MG), lung cancer (H1975), pancreatic cancer (Aspc-1), liver cancer (Hep G2), breast cancer (MDA-MB-231), colon cancer (HCT116), kidney cancer (Caki-1), gastric cancer (SNU-1) and ovarian cancer (OVCAR-3) cells were cultured in a 96-well plate under conditions of 37° C. and 5% CO2 for 24 hours, and then each cancer cell was treated with ADP-ribose at each concentration. After culturing for 24 hours under conditions of 37° C. and 5% CO2 again, 10 μl of 3-(4,5-dimethylthiazol-2-yl)-2,5-diphenyltetrazolium bromide reagent was added to each well and reacted for 1 hour. After the reaction was completed, the reagent was removed, 200 μl of dimethyl sulfoxide was added to each well, and the absorbance was measured to determine the concentration of half-lethality and maximum lethality compared to untreated cells.
3×10^3 AsPC-1 cells were cultured in a 96-well plate for 24 hours under conditions of 37° C. and 5% CO2, treated with ADP-ribose at concentrations of 0.125, 0.25, 0.5, 1, 2, 4, 8, 16, and 32 μM, respectively, and cultured again for 24 hours under conditions of 37° C. and 5% CO2. Then, 10 μl of 3-(4,5-dimethylthiazol-2-yl)-2,5-diphenyltetrazolium bromide reagent was added to each well and reacted for 1 hour. After the reaction was completed, the reagent was removed, 200 μl of dimethyl sulfoxide was added to each well, and the absorbance was measured to confirm cell viability.
Description for H1975 cells: as §1
3×10^3 H1975 cells were cultured in a 96-well plate for 24 hours under conditions of 37° C. and 5% CO2, treated with ADP-ribose at concentrations of 0.125, 0.25, 0.5, 1, 2, 4, 8, 16, and 32 μM, respectively, and cultured again for 24 hours under conditions of 37° C. and 5% CO2. Then, 10 μl of 3-(4,5-dimethylthiazol-2-yl)-2,5-diphenyltetrazolium bromide reagent was added to each well and reacted for 1 hour. After the reaction was completed, the reagent was removed, 200 μl of dimethyl sulfoxide was added to each well, and the absorbance was measured to confirm cell viability.
Description for MDA-MB-231 cells: 3×10^3 Brain cancer (U-87MG), lung cancer (H1975), pancreatic cancer (Aspc-1), liver cancer (Hep G2), breast cancer (MDA-MB-231), colon cancer (HCT116), and kidney cancer (Caki-1) cells were cultured in a 96-well plate for 24 hours under conditions of 37° C. and 5% CO2, treated with ADP-ribose or 2 or 5 Gy radiation alone or in combination with ADP-ribose and 2 Gy radiation, and cultured for 24 hours under conditions of 37° C. and 5% CO2 again. Then, 10 μl of 3-(4,5-dimethylthiazol-2-yl)-2,5-diphenyltetrazolium bromide reagent was added to each well and reacted for 1 hour. After the reaction was completed, the reagent was removed, 200 μl of dimethyl sulfoxide was added to each well, and the absorbance was measured to compare the degree of cell death.
3×10^3 MDA-MB-231 cells were cultured in a 96-well plate for 24 hours under conditions of 37° C. and 5% CO2, treated with 16 μM of ADP-ribose and 2 or 5 Gy dose of radiation individually or in combination, and cultured for 24 hours under conditions of 37° C. and 5% CO2 again. Then, 10 μl of 3-(4,5-dimethylthiazol-2-yl)-2,5-diphenyltetrazolium bromide reagent was added to each well and reacted for 1 hour. After the reaction was completed, the reagent was removed, 200 μl of dimethyl sulfoxide was added to each well, and the absorbance was measured to confirm cell viability.
Description for U-87MG cells: 3×10^3 Brain cancer (U-87MG) cells were cultured in a 96-well plate for 24 hours under conditions of 37° C. and 5% CO2, treated with 8 μM of ADP-ribose and 2 or 5 Gy dose of radiation individually or in combination, and cultured for 24 hours under conditions of 37° C. and 5% CO2 again. Then, 10 μl of 3-(4,5-dimethylthiazol-2-yl)-2,5-diphenyltetrazolium bromide reagent was added to each well and reacted for 1 hour. After the reaction was completed, the reagent was removed, 200 μl of dimethyl sulfoxide was added to each well, and the absorbance was measured to confirm cell viability.

By viability is commonly meant a per cent measure of how many cells are alive, often set against a control. As to `Nc1ncnc2c1ncn2[C@@H]1O[C@H](COP(=O)(O)OP(=O)(O)OC[C@H]2O[C@@H](O)C(O)C2O)C(O)C1O` (stereo partly drawn) [ADP-ribose, adenosine diphosphate ribose], in the assay on Hep G2 cells, the “amount of ADP-ribose in cells compared to the control group” value is reported as “remarkably increased significantly”. The “maximum lethal dose (concentration at which almost all cells were killed)” value in the assay with H1975 cells (H1975, 24 hours, MTT) stood at 32 µM; in the assay with AsPC-1 cells (AsPC-1, 24 hours, MTT) it was 32 µM. The “cancer cell growth under a microscope” value in the assay with H1975 cells (H1975, ADP-ribose treated vs control, FIG. 3A) is “inhibited from growing and killed”; in the assay with AsPC-1 cells (AsPC-1, ADP-ribose treated vs control, FIG. 4A), “inhibited from growing and killed”. Further, the pIC50 in the assay on H1975 cells (Homo sapiens, NCI-H1975, 24 h, read-out: half-lethal dose (concentration at which about half of the cells were killed)) is ~5.70; with AsPC-1 cells (Homo sapiens, ASPC1, 24 h, read-out: half-lethal dose (concentration at which about half of the cells were killed)), ~5.70. Also, the figures for the viability at 1.6 µM in assay [1] and in assay [2] were ~18% and ~0.9%, respectively. Further, in the assay on Caki-1 cells, the “amount of ADP-ribose in the cells over time compared to the control group” value is listed as “maintained a significant (P<0.001) increase”. The “survival rate of cancer cells” value with U-87MG cells is “about 12.3%”; in the assay with MDA-MB-231 cells, “about 11.3%”. The “reduction of tumor volume compared to the control group” value in assay [3] (setting [4]) is reported as “about 69.1%”. Besides, in assay [3] (setting [4]), the “reduction of tumor volume compared to the group treated with 2 Gy dose of radiation alone” value is recorded as “about 57.3%”. Also, the final tumor volume entry in assay [3] (ADP-ribose 10 mg/kg subcutaneous 3 times a week + 2 Gy radiation, control about 2384.3, 2 Gy alone about 1725.5) was “about 736.2 mm^3”.
